Results taken from patent publication US20230346769A1, “USE OF SIMPLE ACYCLIC POLYAMINES FOR THE TREATMENT OF DISEASES CAUSED BY PARASITES OF THE GENUS LEISHMANIA” (Universidad De Granada, priority 2020, published 2023).

Tests used:
[1] = test system: L. infantum promastigote forms; test: In vitro activity against extracellular (promastigote) forms; assay type: cell-based, Leishmania infantum; conditions: for IC50: Leishmania infantum, 72 h
From the text: (§1) Methodology: Cultures of three Leishmania species, representative of the species causing each of the clinical forms of the disease, were used for these studies. Specifically, strains MCAN/ES/2001/UCM-1 O of L.infantum, isolated and characterised in Madrid from an infected dog; MHOM/BR/1975/M2904 of L.braziliensis, isolated in Brazil in a human case, and LCR-L 133 LRC of L.donovani. isolated in Jerusalem, Israel from a case of kala-azar […] (WHO Technical Reports Series 949. Geneva: WHO. March. The cultures of parasites come from an own collection which was prepared from a biobank project (Biobank and Characterisation Unit of Strains and Species of Trypanosomatids, Responsible for Human, Animal and Plant Pathologies, Cgl-2008-03687-E/Bos.), and are available on request.
(§2) The promastigote forms of the three species studied were cultured in vitro in sterility in single-phase MTL culture medium (Medium Trypanosomes Liquid) made from Hank’s Balanced Salts (Sigma-Aldrich, H6136) enriched with 10% (v/v) of Fetal Bovine Serum (SBF-1) inactivated at 56° C./ 30 minutes. The parasite inoculum to initiate the culture was 5 × 10^4 cells/ml in 5 ml medium in 25 cm^2 Falcon® plastic flasks and kept in an oven at 28° C. The cultures were performed routinely, achieving exponential growth of the flagellates until obtaining the cell mass necessary for the subsequent studies. Both promastigote forms and amastigote forms were used to conduct the assays.
(§3) The promastigote forms of the three Leishmania strains, cultured in the manner described above, were harvested in their exponential growth phase by centrifugation at 400 g for 10 min. The number of parasites was counted in a Neubauer Haemocytometer Counting Chamber and were inoculated in a 24-well plate at a concentration of 5 ×10^4 parasites/well.
(§4) The compounds to be assayed were dissolved in DMSO at a concentration of 0.01% (v/v), concentration at which this solvent is not toxic nor has any effect on the growth of parasites. The compounds were added to the culture medium at final concentrations of 100, 50, 25 and 12.5 µM. […] M. et al. Med. Chem. 2011. 54. 970-979].

[2] = test system: L. donovani amastigote forms; test: In vitro activity against intracellular (amastigote) forms in macrophages; assay type: cell-based, Leishmania donovani; conditions: for IC50: Leishmania donovani, Macrophage, 72 h
From the text: as §1
(§5) For the study of the in vitro effect on intracellular forms of Leishmania, the experimental model designed by the group of the present inventors was used [Sánchez-Moreno. M. et al. Med. Chem. 2012, 55, 9900-9913; Sánchez-Moreno. M. et al. J. Antimicrob. Chemother. 2012, 67, 387-397]. The macrophages were detached from the culture flask where they were attached by dry blows. To do this, it was incubated in cold for 5 minutes and after that the flask was hit with the palm of the hand until the cells were detached from the flask. Then, they were passed to a 25 ml capacity steriling conical bottom flask (Deltalab) to centrifuge them at 120 g for 5 minutes, removing the supernatant and were counted in Neubauer’s chamber. Cells were suspended in RPMI medium at a concentration of 1×10^4 cells/well, then cultured in 24-well plates into which a 12 mm round slide had previously been placed into each well. For adherence, the cells were left 24 h at 37° C. in 5% CO2. Subsequently, the cells were infected in vitro by placing Leishmania cells at the rate of 10 parasites/macrophage according to [Sánchez-Moreno. M et al. Med. Chem. 2011, 54, 970-979]. […] The products were allowed to act for 72 hours of incubation.
(§6) After that time, the crystals were removed and fixed with methanol on a slide and allowed to dry, after which DPX microscopy mounting medium (Panreac®) was added to it. Once the preparations had been mounted, they were dyed with Giemsa by diluting Azur-Eosin-Methylene Blue solution according to Giemsa DC (Code 251338) with Sorensen buffer (1:10 dilution). The preparations were covered and allowed to colour for 20 minutes, after which they were washed with distilled water and then allowed to drain and dry vertically. Finally, the amastigote forms were counted with the aim of immersion in a total of 200 cells.

[3] = Potentiometric titrations, protonation constants; assay type: physicochemical; conditions: 0.15 M NaCl, 298.1 K
Method: FEM measurements. Potentiometric titrations were conducted at 298.1 ± 0.1 K using 0.15 M NaCl as the support electrolyte. The experimental procedure (burette, potentiometer, cell, stirrer, microcomputer, etc.) has been fully described elsewhere (E. García-Spain, M.-J. Ballester, F. Lloret, J.M. Moratal, J. Faus and A. Bianchi, J. Chem. Soc. Dalton Trans. 1988, 101-104). The FEM data acquisition was performed with the PASAT software (M. Fontanelli and M. Micheloni, Program for the automatic control of the microburette and the acquisition of the electromotor force readings (PASAT). Minutes of the 1st Spanish-Italian Congress of Thermodynamics of Metal Complexes, Peñíscola, Castellón, Spain, 1990). The reference electrode was an Ag/AgCl electrode in saturated KCI solution. The glass electrode was calibrated as a hydrogen ion concentration probe by titration of previously standardised amounts of HCl with CO2 free NaOH solutions and the equivalent point determined by Gran’s method ((a) G. Gran, Analyst 1952, 77, 661 -671; (b) F.J. Rossotti and H. Rossotti, J. Chem. Educ. 1965, 42, 375-378) providing the standard potential, Eº’, and the ionic product of water (pKw = 13.73 (1)).
Hyperquad software was used to calculate protonation and stability constants (P. Gans, A. Sabatini and A. Vacca, Talanta 1996, 43, 1739-1753). The pH range investigated was 2.5-11.0 and the concentration of the ligands varied from 1×10^-3 to 5×10^-3 M. The different titration curves for each system (at least two) were treated as a single set or as separate curves without significant variations in the values of the stability constants. Finally, the data sets were fused and treated simultaneously to give the final protonation constants (Table 1). For compounds 1, 7 and 9, two protonation constants have been detected in the pH range studied with values ranging from 5.51 to 9.68 logarithmic units. For the remaining compounds, three protonation constants have been measured with values ranging from 10.08 to 2.25 logarithmic units. All compounds have charge +1 at the physiological pH value of 7.4.

[4] = test system: L. braziliensis promastigote forms; test: In vitro activity against extracellular (promastigote) forms; assay type: cell-based, Leishmania braziliensis; conditions: for Selectivity Index (SI) L. brazilensis Promastigote forms: IC50 of macrophages / IC50 of parasite form; for IC50: Leishmania braziliensis, 72 h
From the text: as §1, §2, §3, §4

[5] = test system: L. donovani promastigote forms; test: as above; assay type: cell-based, Leishmania donovani; conditions: for Selectivity Index (SI) L. donvovani Promastigote forms: IC50 of macrophages / IC50 of parasite form; for IC50: Leishmania donovani, 72 h
From the text: as §1, §2, §3, §4

[6] = test system: L. braziliensis amastigote forms; test: In vitro activity against intracellular (amastigote) forms in macrophages; assay type: cell-based, Leishmania braziliensis; conditions: for Selectivity Index (SI) L. brazilensis Amastigote forms: IC50 of macrophages / IC50 of parasite form; for IC50: Leishmania braziliensis, Macrophage, 72 h
From the text: as §1, §5, §6

[7] = test system: L. infantum amastigote forms; test: as above; assay type: cell-based, Leishmania infantum; conditions: for IC50: Leishmania infantum, Macrophage, 72 h
From the text: as §1, §5, §6

[8] = IC50 of macrophages / IC50 of parasite form

Q: Which IC50 [1] does the source give for CNCCNCc1cccnc1 [Compound 2, 1-{3-pyridyl)-2,5-diazahexane] here?
A: The IC50 was 6.4 ± 0.6 µM.

Q: What about the “Selectivity Index (SI) L. donvovani Amastigote forms” value [2, 8] of the same compound?
A: The value was 21.

Q: What about the IC50 [2] of the same compound?
A: Its IC50 is 14.4 ± 0.1 µM.

Q: And the “Log β” value [3]?
A: Its value is 18.29(3).

Q: What about the “Logarithm of the protonation constant H2L+H ⇌ H3L” value [3] of the same compound?
A: Its value is 2.95(2).

Q: And the “Logarithm of the protonation constant H+L ⇌ HL” value [3]?
A: The value was 9.653(5).

Q: What about the “Logarithm of the protonation constant HL+H ⇌ H2L” value [3] of the same compound?
A: Its value is 5.687(5).

Q: And the “Selectivity Index (SI) L. brazilensis Promastigote forms” value [4]?
A: Its value is 76.

Q: What about the IC50 [4] of the same compound?
A: Its IC50 is 4.1 ± 0.2 µM.

Q: What about the “Selectivity Index (SI) L. donvovani Promastigote forms” value [5] of the same compound?
A: Its value is 26.

Q: And the IC50 [5]?
A: The IC50 was 11.7 ± 0.8 µM.

Q: What about the “Selectivity Index (SI) L. brazilensis Amastigote forms” value [6] of the same compound?
A: Its value is 20.

Q: What about the IC50 [6] of the same compound?
A: The IC50 was 15.8 ± 0.5 µM.

Q: What about the IC50 [7] of the same compound?
A: Its IC50 is 8.4 ± 0.5 µM.

Q: For CN(C)CCNCc1ccncc1 [Compound 6], which “Selectivity Index (SI) L. infantum Promastigote forms” value [1, 8] is on record?
A: The value was 8.

Q: What about the IC50 [1] of the same compound?
A: Its IC50 is 63.3 ± 1.5 µM.

Q: What about the IC50 [2] of the same compound?
A: The IC50 was 11.5 ± 1.3 µM.

Q: What about the “Log β” value [3] of the same compound?
A: Its value is 17.22 (1).

Q: And the “Logarithm of the protonation constant H2L+H ⇌ H3L” value [3]?
A: Its value is 2.956(6).

Q: And the “Logarithm of the protonation constant H+L ⇌ HL” value [3]?
A: The value was 8.865(3).

Q: And the “Logarithm of the protonation constant HL+H ⇌ H2L” value [3]?
A: Its value is 5.407(3).

Q: And the “Selectivity Index (SI) L. brazilensis Promastigote forms” value [4]?
A: Its value is 9.

Q: What about the IC50 [4] of the same compound?
A: Its IC50 is 52.5 ± 5.1 µM.

Q: And the “Selectivity Index (SI) L. donvovani Promastigote forms” value [5]?
A: The value was 7.

Q: What about the IC50 [5] of the same compound?
A: The IC50 was 67.9 ± 5.3 µM.

Q: And the “Selectivity Index (SI) L. brazilensis Amastigote forms” value [6]?
A: The value was 17.

Q: What about the IC50 [6] of the same compound?
A: Its IC50 is 29.7 ± 2.5 µM.

Q: What about the “Selectivity Index (SI) L. infantum Amastigote forms” value [7, 8] of the same compound?
A: The value was 21.

Q: What about the IC50 [7] of the same compound?
A: The IC50 was 23.6 ± 1.7 µM.
